Assay results reported in article PMC8533219, “Evaluation of the Antioxidant, Antidiabetic, and Antiplasmodial Activities of Xanthones Isolated from Garcinia forbesii and Their In Silico Studies” (Biomedicines, 2021).
“And” between values parts separate entries of the source, which are not always exact repeats. Equal entries are not always repeated. Where two headings read alike, the source gives them in different places.

Columns and labels:
[1] = parameters: method as in PMID 33711431; conditions: read-out: DPPH scavenging IC50; cited from earlier work
[2] = molecular target: rat intestinal α-glucosidase; assay: Rat intestinal α-glucosidase inhibitory activity; format: biochemical; conditions: IC50 > 1000 μM = inactive
Procedure: The inhibitory activity of rat intestinal α-glucosidase was determined according to previously reported method with slight modifications. This procedure was performed by classifying four mixtures in different groups. The mixture (1) labelled “Blank of enzyme reaction” contained the mixture and DMSO (10 µL), sodium phosphate buffer (50 µL), glucose kit (80 µL), enzyme (20 µL) and substrate (20 µL maltose, sucrose 20 µL). A 10 µL of sample and samples with various concentrations of compounds was added to the well Plates (3) and (4). A 50 µL of sodium phosphate buffer (pH 6.9) was then added to well Plates (1) and (3), and a 30 µL of the buffer was added to well Plates (2) and (4), respectively. The substrate (maltose, 20 µL; sucrose 20 µL) was then added to the Plates (2) and (4). A glucose kit (80 µL each) and the enzyme (20 µL) were added to all plates and were incubated for 10 min for maltose and 40 min for sucrose. Finally, the absorbance was then measured at λ = 520 nm using a microplate reader (BioTek ELx800TM, BioTek Instruments, Inc., Winooski, VT, USA).

[3] = Ferric reducing-antioxidant power (FRAP) assay; conditions: for FRAP: reduction power
Procedure: The FRAP assay was determined according to the described method using 300 mM acetate buffer, 40 mM HCl, 10 mM (2,4,6 Tris(2-pyridyl)-s-triazine (TPTZ)), 20 mM FeCl3·6H2O. For standard curve comparison, a 10:1:1 (acetate buffer: TPTZ: H2O) and sample ratio 10:1:1 (acetate buffer: TPTZ: FeCl3·6H2O) were constructed. The standard curve was prepared using various concentrations of FeSO4·7H2O. The reaction mixture was incubated at 37 °C for 30 min followed by measurement of the absorbance at 593 nm. In this test, the reduction capacity of the tested compound calculated concerning the reaction signal given by the Fe^2+ solution. The FRAP value was expressed as µM Fe^2+/g ((Frap value of sample (µM) = abs (sample) × FRAP value of std (µM)/abs (std).

P. falciparum strain 3D7 = assay: In vitro antiplasmodial assay (pLDH method); format: cell-based; conditions: Plasmodium falciparum; for inhibition at 10 µg/mL: read-out: % Inhibition (10 μg/mL)
Procedure: The parasites used in this test were synchronized (Ring stage) with ± 0.3% parasitemia (2% hematocrit). […] The well plates were put in the chamber with mix gas atmosphere (O2 5%, CO2 5% and N2 90%) and incubated for 72 h at 37 °C. After that, the plate was harvested and stored at −30 °C. After 24 h, the pLDH assay was performed by reading the absorbance at 650 nm using a SpectraMax Paradigm® Multi-Mode microplate reader.

Plasmodium falciparum = conditions: read-out: IC50 against Plasmodium falciparum; cited from earlier work
[4] = DPPH radical scavenging assay; conditions: for IC50: IC50 > 1000 μM = inactive
Procedure: DPPH (1,1-diphenyl-2-picrylhydrazyl) was used for the antioxidant test using quercetin and gallic acid as controls. The compounds were diluted at concentrations of 159.73, 79.87, 39.93, 19.97, 9.98 µg/mL. A total 1 mL of DPPH 6 × 10^−5 M solution, complete with 33 µL of the compound, was incubated at 37 °C for 20 min. […] The radical inhibitory activity was calculated using the equation [(Ab-As)/Ab] × 100%.

[5] = molecular target: T1, Porcine pancreatic α-amylase (Sus scrofa, UniProt P00690); assay: α-Amylase inhibitory activity; format: biochemical; conditions: read-out: α-Amylase Starch IC50
T1 sequence (P00690 16-511): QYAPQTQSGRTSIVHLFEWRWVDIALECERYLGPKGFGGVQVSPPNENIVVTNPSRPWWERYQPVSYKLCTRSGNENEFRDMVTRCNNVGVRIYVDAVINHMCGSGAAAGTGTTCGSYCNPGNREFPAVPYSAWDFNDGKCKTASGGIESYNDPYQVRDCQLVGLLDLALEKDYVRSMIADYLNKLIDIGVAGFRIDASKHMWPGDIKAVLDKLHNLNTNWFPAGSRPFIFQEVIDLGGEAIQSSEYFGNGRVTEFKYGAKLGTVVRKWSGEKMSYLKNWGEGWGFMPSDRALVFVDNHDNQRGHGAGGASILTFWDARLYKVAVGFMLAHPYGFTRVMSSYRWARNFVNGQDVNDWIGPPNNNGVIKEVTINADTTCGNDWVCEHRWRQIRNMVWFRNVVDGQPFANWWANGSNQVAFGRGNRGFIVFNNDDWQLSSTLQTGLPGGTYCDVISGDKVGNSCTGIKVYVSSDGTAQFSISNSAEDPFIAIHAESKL
Procedure: The modified α-amylase enzyme inhibition test was conducted for antidiabetic activity evaluation. A total of 10 mg sample was dissolved in 1 mL DMSO and 0.1 M phosphate buffer and 5 mg α-amylase solution (Porcine pancreatic α-amylase) in 1 mL phosphate buffer pH 6.9 was added. A 100 mg of potato starch (substrate) was heated in 5 mL of 0.1 M phosphate buffer for 5 min and cooled to room temperature. Then, 20 µL of the sample and 50 µL of substrate were mixed into 30 µL of phosphate buffer. The mixture was pre-incubated for 5 min followed by the addition of 20 µL of α-amylase enzyme and then incubation at 37 °C for 15 min. The color development was performed by adding 50 µL of 1M HCl and 50 µL of 10% iodine solution. Finally, the absorbance was measured at a wavelength of 650 nm.

[6] = ABTS radical scavenging assay; conditions: for IC50: IC50 > 1000 μM = inactive
Procedure: The antioxidant activity was also determined by free radical ABTS (2,2″-azinobis (3-ethyl benzothiazoline-6-sulfonic acid) according to the reported procedure. In this test, 7 mM ABTS solution was prepared and mixed with a buffer solution of potassium peroxydisulfate, incubated for 16 h, and protected from light. A total of 10 μL of the sample and 1 mL of the ABTS was incubated for 4 min and measured at a wavelength of 734 nm. This experiment was performed triplo using quercetin and gallic acid as controls. The ABTS inhibitory activity was calculated by the equation [(Ab-As)/Ab] × 100%.

α-glucosidase = conditions: cited from earlier work
[7] = substrate maltose, read-out: α-Glucosidase Maltose IC50
[8] = substrate sucrose, read-out: α-Glucosidase Sucrose IC50
[9] = P. falciparum 3D7, 10 μg/mL, 72 h
[10] = P. falciparum 3D7, 72 h, read-out: IC50

## O=c1c2cc(O)c(O)cc2oc2cc(O)cc(O)c12 [1,3,6,7-tetrahydroxyxanthone]
[1]
  IC50: 28.4 µM

## C[C@H]1O[C@H](O[C@H]2[C@H](O)[C@@H](O)[C@@H](O[C@H]3[C@H](O)[C@@H](O)C(O)O[C@@H]3CO)O[C@@H]2CO)[C@H](O)[C@@H](O)[C@@H]1N[C@H]1C=C(CO)[C@@H](O)[C@H](O)[C@H]1O (stereo partly drawn) [Acarbose, reference compound]
[2]; [7]
  IC50: 3.4 ± 0.27 µM
[2]; [8]
  IC50: 4.6 ± 0.51 µM

## O=C1O[C@H]([C@@H](O)CO)C(O)=C1O [Ascorbic acid, reference compound]
[3]
  FRAP: 30.6 ± 0.27 µM Fe^2+/g
[3]; listed as ascorbic acid
  FRAP: 30.6 µM Fe^2+/g
[1]
  IC50: 48 µM

## CCN(CC)CCCC(C)Nc1ccnc2cc(Cl)ccc12 (stereo not drawn) [Chloroquine, reference compound]
P. falciparum strain 3D7; 3D7, 72 h
  IC50: 0.006 ± 0.01 µM
  inhibition at 10 µg/mL: 98.8 ± 0.25%
Plasmodium falciparum
  IC50: 300 nM

## COc1cc(C)c2c(=O)c3c(O)cc(OC)cc3oc2c1 [Compound 1, lichexanthone]
[2]; substrate maltose
  α-Glucosidase Maltose IC50: inactive
[2]; [7]
  IC50: > 1000 µM
[2]; substrate sucrose
  α-Glucosidase Sucrose IC50: inactive
[2]; [8]
  IC50: > 1000 µM
P. falciparum strain 3D7; [9]
  inhibition at 10 µg/mL: < 10%
[3]
  FRAP: 5.7 ± 0.57 µM Fe^2+/g
[4]
  IC50: > 1000 µM
[5]
  IC50: > 1000 µM
[6]
  IC50: > 1000 µM

## C=CC(C)(C)c1cc(O)c(O)c2c(=O)c3cc4c(c(O)c3oc12)OC(C)(C)C=C4 [Compound 2, subelliptenone H]
[2]; [8]
  IC50: 43.8 ± 1.51 µM
P. falciparum strain 3D7; [9]
  inhibition at 10 µg/mL: 86.8 ± 0.33%
P. falciparum strain 3D7; [10]
  IC50: 3.3 ± 0.04 µM
[3]
  FRAP: 166.3 µM Fe^2+/g and 166.3 ± 1.47 µM Fe^2+/g
[4]
  DPPH % Inhibition (159.7 μg/mL): 95.29 ± 0.05%
  IC50: 19.4 ± 0.15 µM
[5]
  IC50: 41.3 ± 1.24 µM
[6]
  ABTS % Inhibition (99 μg/mL): 97.29 ± 0.04%
  IC50: 2.7 ± 0.05 µM

## C=CC(C)(C)c1cc(O)c2oc3c(O)cccc3c(=O)c2c1O [Compound 3, 12b-hydroxy-des-D-garcigerrin A]
[2]; [7]
  IC50: 109 ± 1.31 µM
[2]; [8]
  IC50: 79.6 ± 2.01 µM
P. falciparum strain 3D7; [9]
  inhibition at 10 µg/mL: 87.9 ± 0.23%
P. falciparum strain 3D7; [10]
  IC50: 5 ± 0.04 µM
[3]
  FRAP: 203.9 ± 1.19 µM Fe^2+/g
[3]; relative to ascorbic acid
  Iron reducing power, fold greater than ascorbic acid: approximately 6 fold
[4]
  DPPH % Inhibition (159.7 μg/mL): 96.83 ± 0.03%
  IC50: 18.9 ± 0.1 µM
[5]
  IC50: 28.7 ± 0.35 µM
[6]
  ABTS % Inhibition (99 μg/mL): 98.31 ± 0.05%
  IC50: 0.05 ± 0.01 µM
[6]; relative to quercetin
  ABTS IC50, fold lower than quercetin: 4 fold

## C=CC(C)(C)c1cc(O)c2oc3c4c(ccc3c(=O)c2c1O)C=CC(C)(C)O4 [Compound 4, garciniaxanthone B]
[2]; [7]
  IC50: 139.4 ± 1.21 µM
[2]; [8]
  IC50: 75.9 ± 2.11 µM
P. falciparum strain 3D7; [9]
  inhibition at 10 µg/mL: < 10%
[3]
  FRAP: 192.7 µM Fe^2+/g and 192.7 ± 0.77 µM Fe^2+/g
[4]
  DPPH % Inhibition (159.7 μg/mL): 95.38 ± 0.08%
  IC50: 14.1 ± 0.07 µM
[5]
  IC50: 10.8 ± 0.04 µM
[6]
  ABTS % Inhibition (99 μg/mL): 96.15 ± 0.01%
  IC50: 7.9 ± 0.01 µM

## C=CC(C)(C)c1cc(O)c2oc3c4c(ccc3c(=O)c2c1O)[C@H](O)[C@H](O)C(C)(C)O4 [Compound 5, garcigerin A]
[2]; [7]
  IC50: 91 ± 1.14 µM
[2]; [8]
  IC50: 37.4 ± 1.2 µM
P. falciparum strain 3D7; [9]
  inhibition at 10 µg/mL: < 10%
[3]
  FRAP: 187.8 µM Fe^2+/g and 187.8 ± 1.36 µM Fe^2+/g
[4]
  DPPH % Inhibition (159.7 μg/mL): 96.60 ± 0.05%
  IC50: 20.4 ± 0.22 µM
[5]
  IC50: 18.7 ± 0.54 µM
[6]
  ABTS % Inhibition (99 μg/mL): 97.40 ± 0.03%
  IC50: 6.5 ± 0.02 µM

## O=C(O)c1cc(O)c(O)c(O)c1 [Gallic acid, reference compound]
[4]
  DPPH % Inhibition (159.7 μg/mL): 97.21± 0.01%
  IC50: 3 ± 0.01 µM
[6]
  ABTS % Inhibition (99 μg/mL): 96.30 ± 0.01%
  IC50: 0.7 ± 0.01 µM

## O=c1c(O)c(-c2ccc(O)c(O)c2)oc2cc(O)cc(O)c12 [Quercetin, reference compound]
[4]
  DPPH % Inhibition (159.7 μg/mL): 96.34 ± 0.01%
  IC50: 4.1 ± 0.01 µM
[6]
  ABTS % Inhibition (99 μg/mL): 97.58 ± 0.01%
  IC50: 0.17 ± 0.01 µM

## CC(C)=CCc1c(O)cc2oc3c(CC=C(C)C)c(O)c(O)c(CC=C(C)C)c3c(=O)c2c1O [garcinone E]
[1]
  IC50: 63.1 µM

## CC(C)=CCC/C(C)=C/Cc1c(O)c(O)cc2oc3cc(O)c(CC=C(C)C)c(O)c3c(=O)c12 [norcowanin]
α-glucosidase
  IC50: 1700 nM

## garcinoxanthones SV
[1]
  IC50: 68.5 µM

## subelliptenone F
α-glucosidase
  IC50: 4100 nM
